Measurements taken from EP1673349B1, “BENZIMIDAZOLE DERIVATIVES: PREPARATION AND PHARMACEUTICAL APPLICATIONS” (priority 2003, dated 2005).
Like-named read-outs stand apart in the source and are kept apart here.

Key:
HDAC8 enzyme = assay: In vitro HDAC assay (BIOMOL fluorescent-based HDAC activity assay), HDAC8; type: biochemical, human
Method: (§2) Expression of GST-HDAC1 or HTGST-HDAC8 was done by infecting SF9 cells (Invitrogen Pte Ltd) with pDEST20-HDAC1 or pFASTBAC-GST-HDAC8 baculovirus at MOI=1 for 48 h. Soluble cell lysate was incubated with pre-equilibrated Glutathione Sepharose 4B beads (Amersham) at 4°C for 2 h. The beads were washed with PBS buffer for 3 times. The GST-HDAC1 protein or GST-HDAC8 protein was eluted by elution buffer containing 50 mM Tris, pH8.0, 150mM NaCl, 1% Triton X-100 and 10mM or 20mM reduced Glutathione. The purified GST-HDAC1 protein or purified GST-HDAC8 protein was dialyzed with HDAC storage buffer containing 10mM Tris, pH7.5, 100mM NaCl and 3mM MgCl2. 20% Glycerol was added to purified GST-HDAC1 protein or purified GST-HDAC8 before storage at -80°C.

Colo205 = assay: Cell-based proliferation assay (cyquant), Colo205; parameters: species or system human; conditions: Homo sapiens;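 also: Colo205 cells exposed for 96 h to a range of compound concentrations, growth read by CyQUANT, GI50 taken from plotted dose-response curves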
Method: (§3) Human colon cancer cell lines (Colo205 and HCT116), human breast cancer cell lines (MDA-MB435 and MDA-MB231), and human lung cancer cell line (A549) were obtained from ATCC. […] MDA-MB435 cells were cultivated in DMEM containing 2 mM L-Glutamine, 5% FBS. HCT116 cells were cultivated in IMEM containing 2 mM L-Glutamine, 5% FBS. A549 and Colo205 cells were seeded in 96-wells plate at 2000 and 5000 cells per well respectively. MDA-MB435, HCT116, MDA-MB231 cells were seeded in 96-wells plate at 6000 cells per well. The plates were incubated at 37°C, 5% CO2, for 24 h. Cells, were treated with compounds at various concentration for 96 h. Cell growth was then monitored using cyquant cell proliferation assay (Invitrogen Pte Ltd). Dose response curves were plotted to determine GI50 values for the compounds using XL-fist.

MDA-MB435 = assay: Cell-based proliferation assay (cyquant), MDA-MB435; parameters: species or system human; conditions: Homo sapiens, MDA-MB-435;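 also: GI50 taken from dose–response curves over a range of compound concentrations, with cell growth quantified by the CyQUANT proliferation assay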
Method: as §3

acetylated H3 = assay: Histone acetylation assay by immuno-blotting, acetylated H3; type: cell-based, human; conditions: Colo205 cells, 0.1, 1, 5 and 10 µM, 24 h, western blot
Method: (§1) A hallmark of histone deacetylase (HDAC) inhibition is the increase in the acetylation level of histones. Histone acetylation, including H3, H4 and H2A can be detected by immuno-blotting (westem-blot). Colo205 cells, approximately 1.5 x10^6 cells/ 10 cm dish, were seeded in the previously described medium, cultivated for 24 h and subsequently treated with HDAC inhibitory agents at 0.1, 1; 5 and 10 µM final concentration. After 24 h, cells were harvested and lysed according to the instruction from Sigma Mammalian Cell Lysis Kit. The protein concentration was quantified using BCA method (Sigma Pte Ltd). The protein lysate was separated using 4-12% bis-tris SDS-PAGE gel (Invitrogen Pte Ltd) and was transferred onto PVDF membrane (BioRad Pte Ltd). The membrane was probed separately using primary antibody specific for acetylated H3, acetylated H4 or acetylated H2A (Upstate Pte Ltd). The detection antibody, goat anti rabbit antibody conjugated with HRP was used according to the manufacturing instruction (Pierce Pte Ltd). After removing the detection antibody from the membrane, an enhanced chemiluminescent substrate for detection of HRP (Pierce Pte Ltd) was added onto the membrane. After removing the substrate, the membrane was exposed to an X-ray film (Kodak) for 1 sec - 20 mins. The X-ray film was developed using the X-ray film processor. The density of each band observed on the developed film could be analysed using UVP Bioimaging software (UVP, Inc, Upland, CA). The values were then normalized against the density of actin in the corresponding samples to obtain the expression of the protein.

acetylated H4 = assay: Histone acetylation assay by immuno-blotting, acetylated H4; type: cell-based, human; conditions: Colo205 cells, 0.1, 1, 5 and 10 µM, 24 h, western blot
Method: as §1

acetylated H2A = assay: Histone acetylation assay by immuno-blotting, acetylated H2A; type: cell-based, human; conditions: Colo205 cells, 0.1, 1, 5 and 10 µM, 24 h, western blot
Method: as §1

HDAC3 = assay: In vitro HDAC assay, HDAC3; type: biochemical; conditions: Table 5; Free base
Method: The assay has been carried, out in 96 well format and the BIOMOL fluorescent-based HDAC activity assay has been applied. […] Flur de lys Developer was added and the reaction was incubated for 10 min. Briefly, deacetylation of the substrate sensitizes it to the developer, which then generates a fluorophore (symbol). The fluorophore is excited with 360 nm light and the emitted light (460 nm) is detected on a fluorometric plate reader (Tecan Ultra Microplate detection system, Tecan Group Ltd.).
The analytical software, Prism 3.0 has been used to generate IC50 from a series of data.

HCT116 = assay: Cell-based proliferation assay (cyquant), HCT116; conditions: Homo sapiens, HCT-116; Table 5; Free base
Method: as §3

MDA-MB231 = assay: Cell-based proliferation assay (cyquant), MDA-MB231; conditions: Homo sapiens, MDA-MB-231; Table 5; Free base
Method: as §3

A549 = assay: Cell-based proliferation assay (cyquant), A549; conditions: Homo sapiens, Table 5, Free base
Method: as §3

HDAC1 enzyme = HDAC1 enzyme (Homo sapiens, UniProt Q13547); assay: In vitro HDAC assay (BIOMOL fluorescent-based HDAC activity assay), HDAC1; type: biochemical
Method: as §2

[1] = Table 3, read-out: HDAC8 Enzyme Activity IC50
[2] = COLO 205, 96 h, Table 4, 96 h treatment
[3] = COLO 205, Table 5, Salt of CF3COOH
[4] = COLO 205, Table 4, 96 h treatment
[5] = Table 5, Salt of CF3COOH, read-out: IC50 (HDAC1)
[6] = Table 5, Free base, read-out: IC50 (HDAC8)

Sequence of HDAC1 enzyme (Q13547 whole entry): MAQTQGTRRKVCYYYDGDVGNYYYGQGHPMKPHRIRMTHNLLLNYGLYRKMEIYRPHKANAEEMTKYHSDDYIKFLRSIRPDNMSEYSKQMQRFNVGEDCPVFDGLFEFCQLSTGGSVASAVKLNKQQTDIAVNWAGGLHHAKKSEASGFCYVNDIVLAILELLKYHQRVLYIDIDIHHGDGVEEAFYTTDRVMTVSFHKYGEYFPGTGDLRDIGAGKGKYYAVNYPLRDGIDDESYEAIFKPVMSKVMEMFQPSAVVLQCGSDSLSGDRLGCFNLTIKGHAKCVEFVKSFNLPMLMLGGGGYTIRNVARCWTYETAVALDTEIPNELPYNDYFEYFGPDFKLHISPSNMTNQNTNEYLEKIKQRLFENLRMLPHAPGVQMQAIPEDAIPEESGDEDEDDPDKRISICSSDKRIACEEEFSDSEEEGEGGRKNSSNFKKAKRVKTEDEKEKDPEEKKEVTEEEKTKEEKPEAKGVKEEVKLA

Row | IC50 (HDAC8 enzyme; [1]) [µM] | GI50 (Colo205; [2]) [µM] | GI50 (MDA-MB435; Table 4, 96 h treatment) [µM] | Compound | Histone acetylation activities Histone-3 (acetylated H3) | Histone acetylation activities Histone-4 (acetylated H4) | further results
1 | 0.402 | 3.65 | 3.72 | CCCCCCCCc1nc2cc(/C=C/C(=O)NO)ccc2n1CCCO [Compound 23, N-Hydroxy-3-[1-(3-hydroxy-propyl)-2-octyl-1H-benzimidazol-5-yl]-acrylamide] | – | – | –
2 | 0.329 | – | 3.44 | O=C(/C=C/c1ccc2c(c1)nc(CCc1ccccc1)n2CCc1cccnc1)NO [Compound 27, N-Hydroxy-3-(2-phenethyl-1-(2-pyridin-3-yl-ethyl)-1H-benzimidazol-5-yl]-acrylamide] | – | – | GI50 (Colo205; [4]): 2.23 µM
3 | 0.724 | 11.4 | 19.9 | O=C(/C=C/c1ccc2c(c1)nc(CCc1ccccc1)n2CCCN1CCCC1=O)NO [Compound 30, N-Hydroxy-3-{1-[3-(2-oxo-pyrrolidin-1-yl)-propyl]-2-phenethyl-1H-benzimidazol-5-yl}-acrylamide] | – | – | –
4 | 1.45 | 1.54 | 3.38 | O=C(/C=C/c1ccc2c(c1)nc(CCc1ccccc1)n2Cc1ccccc1)NO [Compound 33, N-Hydroxy-3-(1-Benzyl-2-phenethyl-1H-benzimidazol-5-yl)-acrylamide] | – | – | –
5 | 0.412 | 1.89 | 6.76 | O=C(/C=C/c1ccc2c(c1)ncn2Cc1ccccc1)NO [Compound 35, N-Hydroxy-3-(1-Benzyl-1H-benzimidazol-5-yl)-acrylamide] | – | – | –
6 | 0.192 | – | 8.62 | CCn1c(C)nc2cc(/C=C/C(=O)NO)ccc21 [Compound 43, N-Hydroxy-3-(1-Ethyl-2-methyl-1H-benzimidazol-5-yl]-acrylamide] | – | – | GI50 (Colo205; [4]): 9.18 µM
7 | – | 0.08 | – | O=C(/C=C/c1ccc2c(c1)nc(CCc1ccccc1)n2CCN1CCCCC1)NO [Compound 67, N-Hydroxy-3-[2-phenethyl-1-(piperidin-1-yl-ethyl)-1H-benzimidazol-5-yl]-acrylamide] | Active | Active | IC50 (HDAC1 enzyme; [5]): 0.039 µM; IC50 (HDAC8 enzyme; [6]): 0.254 µM; IC50 (HDAC3): 0.056 µM; GI50 (Colo205; COLO 205, Table 5, Free base): 0.09 µM; GI50 (Colo205; [3]): 0.09 µM; GI50 (MDA-MB435; Table 5, Free base): 0.19 µM; GI50 (HCT116): 0.06 µM; GI50 (MDA-MB231): 0.06 µM; GI50 (A549): 0.08 µM; Histone acetylation activities Histone-2A (acetylated H2A): Active

More lines, now with the values behind:

Row | Compound | IC50 (HDAC8 enzyme; [1]) [µM] | GI50 (Colo205; [2]) [µM] | GI50 (MDA-MB435; Table 4, 96 h treatment) [µM] | Histone acetylation activities Histone-3 (acetylated H3) | Histone acetylation activities Histone-4 (acetylated H4) | further results
8 | CC(Cc1nc2cc(/C=C/C(=O)NO)ccc2n1CCCO)c1ccccc1 (stereo not drawn) [Compound 1, N-Hydroxy-3-[1-(3-hydroxy-propyl)-2-(2-phenyl-propyl)-1H-benzimidazol-5-yl]-acrylamide] | 0.119 | 0.52 | 1.64 | Active | Active | Histone acetylation activities Histone-2A (acetylated H2A): Active
9 | COc1cc(Cn2c(CCc3ccccc3)nc3cc(/C=C/C(=O)NO)ccc32)cc(OC)c1OC [Compound 2, N-Hydroxy-3-[1-(3,4,5-trimethoxybenzyl)-2-(2-phenyl-ethyl)-1H-benzimidazol-5-yl]-acrylamide] | 0.355 | 0.43 | 0.32 | Active | Active | IC50 (HDAC3): 0.064 µM; GI50 (Colo205; COLO 205, Table 5, Free base): 0.4 µM; GI50 (Colo205; [3]): 0.4 µM; GI50 (MDA-MB435; Table 5, Free base): 0.3 µM; GI50 (HCT116): 0.4 µM; GI50 (MDA-MB231): 0.5 µM; GI50 (A549): 0.3 µM; Histone acetylation activities Histone-2A (acetylated H2A): Active
10 | O=C(/C=C/c1ccc2c(c1)nc(CCc1ccccc1)n2Cc1cccnc1)NO [Compound 12, N-Hydroxy-3-[1-(3-pyridylmethyl)-2-(2-phenyl-ethyl)-1H-benzimidazol-5-yl]-acrylamide] | 0.202 | – | 1.07 | Active | Active | GI50 (Colo205; [4]): 0.38 µM
11 | O=C(/C=C/c1ccc2c(c1)nc(CCc1ccccc1)n2CCCO)NO [Compound 14, N-Hydroxy-3-[1-(3-hydroxy-propyl)-2-phenethyl-1H-benzimidazol-5-yl]-acrylamide] | 0.251 | 3.07 | 5.99 | – | – | –
12 | CN(C)CC(C)(C)Cn1c(CCc2ccccc2)nc2cc(/C=C/C(=O)NO)ccc21 [Compound 17, N-Hydroxy-3-[1-(3-Dimethylamino-2,2-dimethyl-proppyl)-2-phenethyl-1H-benzimidazol-5-yl]-acrylamide] | 0.353 | 0.06 | 0.56 | Active | Active | IC50 (HDAC1 enzyme; Table 3, read-out: HDAC1 Enzyme Activity IC50): 0.024 µM; IC50 (HDAC1 enzyme; [5]): 0.024 µM; IC50 (HDAC8 enzyme; [6]): 0.353 µM; GI50 (Colo205; COLO 205, Table 5, Free base): 0.06 µM; GI50 (Colo205; [3]): 0.11 µM; GI50 (Colo205; COLO 205, Table 5, Salt of HCl): 0.06 µM; GI50 (Colo205; COLO 205, Table 5, Salt of Methane sulfonic acid): 0.04 µM; GI50 (MDA-MB435; Table 5, Free base): 0.6 µM; GI50 (HCT116): 0.3 µM; GI50 (MDA-MB231): 0.7 µM; GI50 (A549): 0.2 µM; Histone acetylation activities Histone-2A (acetylated H2A): Active
13 | O=C(/C=C/c1ccc2c(c1)nc(-c1ccsc1)n2CCCO)NO [Compound 20, N-Hydroxy-3-[1-(3-hydroxy-propyl)-2-thiophen-3-yl-1H-benzimidazol-5-yl]-acrylamide] | 0.537 | 30.9 | 37.2 | – | – | –
14 | CC(C)Cc1nc2cc(/C=C/C(=O)NO)ccc2n1CCCO [Compound 21, N-Hydroxy-3-[1-(3-hydroxy-propyl)-2-isobutyl-1H-benzimidazol-5-yl]-acrylamide] | 0.238 | 25.9 | 30.3 | – | – | –
